Source: paper PMC9490236, “Accurate de novo design of membrane-traversing macrocycles” (Cell, 2022)
Where a SMILES comes first, the peptide text is derived from it. [ ]: non-standard residue; d: D form. NMeF = CN[C@@H](Cc1ccccc1)C(=O)O; dNMeF = CN[C@H](Cc1ccccc1)C(=O)O; NMeL = CN[C@@H](CC(C)C)C(=O)O; dNMeL = CN[C@H](CC(C)C)C(=O)O; dNMeV = CN[C@@H](C(=O)O)C(C)C; NMeV = CN[C@H](C(=O)O)C(C)C; NMeA = CN[C@@H](C)C(=O)O; dNMeA = CN[C@H](C)C(=O)O

How the values were obtained:
[1] = PAMPA
[2] = in vitro; conditions: PAMPA, PAMPA_Papp_Avg

Row | Structure (SMILES) | PAMPA_R1 [1] | PAMPA_R3 [1] | Papp [2] [×10⁻⁶ cm/s]
1 | CC(C)C[C@@H]1C(=O)N[C@@H](C)C(=O)N[C@H](CC(C)C)C(=O)N2CCC[C@H]2C(=O)N[C@H](C)C(=O)N2CCC[C@@H]2C(=O)N2CCC[C@H]2C(=O)N[C@H](C(C)C)C(=O)N[C@H](CC(C)C)C(=O)N(C)[C@H](CC(C)C)C(=O)N1C [Design D10.43, DALA DPRO PRO DVAL DLEU *DLEU *DLEU ALA DLEU PRO] (cyclo([dV][dL][dNMeL][dNMeL]A[dL]P[dA][dP]P)) | 1.81E-07 | 1.70E-07 | 0.161
2 | CC(C)C[C@@H]1NC(=O)[C@@H](Cc2ccccc2)NC(=O)[C@@H](CC(C)C)N(C)C(=O)[C@@H]2CCCN2C(=O)[C@H](C)NC(=O)[C@@H](CC(C)C)N(C)C(=O)[C@@H]2CCCN2C(=O)[C@H](CC(C)C)N(C)C(=O)[C@H](CC(C)C)N(C)C(=O)[C@H](C(C)C)NC1=O [Design D10.20, PRO *DLEU ALA PRO *DLEU DPHE LEU VAL *LEU *LEU] (cyclo(AP[dNMeL][dF]LV[NMeL][NMeL]P[dNMeL])) | 1.95E-06 | 3.37E-06 | 2.59
3 | CC[C@H](C)[C@@H]1NC(=O)[C@H]2CCCN2C(=O)[C@@H]2CCCN2C(=O)[C@H](C(C)C)NC(=O)[C@@H](C(C)C)NC(=O)[C@H](Cc2ccccc2)N(C)C(=O)[C@H]2CCCN2C(=O)[C@@H](CC(C)C)N(C)C(=O)[C@@H](CC(C)C)NC1=O [Design D9.42, DPRO ILE DLEU *DLEU DPRO *PHE DVAL VAL PRO] (cyclo(I[dL][dNMeL][dP][NMeF][dV]VP[dP])) | 1.18E-06 | 1.07E-06 | 1.12
4 | CC[C@@H](C)[C@H]1NC(=O)[C@@H]2CCCN2C(=O)[C@@H](Cc2ccccc2)NC(=O)[C@H](CC(C)C)N(C)C(=O)[C@H](C)NC(=O)[C@H]2CCCN2C(=O)[C@@H]2CCCN2C(=O)[C@H](CC(C)C)NC(=O)[C@H](CC(C)C)N(C)C(=O)[C@H](C)N(C)C1=O [Design D10.26, PRO DILE *ALA *LEU LEU PRO DPRO ALA *LEU DPHE] (cyclo(A[NMeL][dF]P[dI][NMeA][NMeL]LP[dP])) | 1.40E-06 | 1.69E-06 | 1.51
5 | CC(C)C[C@H]1NC(=O)[C@@H](C)NC(=O)[C@@H](C)NC(=O)[C@H]2CCCN2C(=O)[C@@H]2CCCN2C(=O)[C@H]2CCCN2C(=O)[C@@H](C)NC(=O)[C@@H](Cc2ccccc2)N(C)C(=O)[C@H]2CCCN2C(=O)[C@@H](CC(C)C)NC(=O)[C@@H](CC(C)C)NC1=O [Design D11.25, DLEU DPRO *DPHE DALA DPRO PRO DPRO DALA DALA DLEU DLEU] (cyclo([dP][dA][dA][dL][dL][dL][dP][dNMeF][dA][dP]P)) | 3.92E-07 | 3.97E-07 | 0.405
6 | CC[C@@H](C)[C@H]1NC(=O)[C@H]2CCCN2C(=O)[C@@H]2CCCN2C(=O)[C@@H](CC(C)C)NC(=O)[C@H](C)NC(=O)[C@@H](CC(C)C)N(C)C(=O)[C@@H](C)N(C)C(=O)[C@@H]2CCCN2C(=O)[C@@H]([C@H](C)CC)NC(=O)[C@@H](CC(C)C)N(C)C1=O [Design D10.39, PRO *DALA *DLEU ALA DLEU PRO DPRO DILE *DLEU DILE] (cyclo(A[dL]P[dP][dI][dNMeL][dI]P[dNMeA][dNMeL])) | 1.69E-06 | 1.47E-06 | 1.48
7 | CC(C)C[C@@H]1NC(=O)[C@H](C(C)C)NC(=O)[C@@H](CC(C)C)N(C)C(=O)[C@H](C)NC(=O)[C@@H](CC(C)C)N(C)C(=O)[C@@H]2CCCN2C(=O)[C@H]2CCCN2C(=O)[C@H](C)N(C)C(=O)[C@H]2CCCN2C(=O)[C@@H](CC(C)C)NC1=O [Design D10.35, LEU DLEU DPRO *ALA DPRO PRO *DLEU ALA *DLEU VAL] (cyclo([dNMeL]A[dNMeL]VL[dL][dP][NMeA][dP]P)) | 5.25E-07 | 2.07E-07 | 0.279
8 | CC(C)C[C@@H]1NC(=O)[C@@H](C)NC(=O)[C@H]2CCCN2C(=O)[C@@H]2CCCN2C(=O)[C@@H](C(C)C)NC(=O)[C@@H](CC(C)C)N(C)C(=O)[C@H]2CCCN2C(=O)[C@H]2CCCN2C(=O)[C@@H](C)N(C)C(=O)[C@H](CC(C)C)N(C)C(=O)[C@@H](Cc2ccccc2)NC1=O [Design D11.16, LEU DPHE *LEU *DALA DPRO DPRO *DLEU DVAL PRO DPRO DALA] (cyclo(L[dF][NMeL][dNMeA][dP][dP][dNMeL][dV]P[dP][dA])) | 3.70E-07 | 4.55E-07 | 0.43
9 | CC[C@H](C)[C@@H]1NC(=O)[C@@H](CC(C)C)N(C)C(=O)[C@H](CC(C)C)N(C)C(=O)[C@H](C)NC(=O)[C@H]2CCCN2C(=O)[C@@H]2CCCN2C(=O)[C@@H]2CCCN2C(=O)[C@@H](C(C)C)NC1=O [Design D8.28, PRO DPRO ALA *LEU *DLEU ILE DVAL PRO] (cyclo(A[NMeL][dNMeL]I[dV]PP[dP])) | 1.45E-06 | 7.65E-07 | 1.14
10 | CC(C)C[C@H]1NC(=O)[C@H](CC(C)C)N(C)C(=O)[C@@H](Cc2ccccc2)NC(=O)[C@@H](C)N(C)C(=O)[C@@H]2CCCN2C(=O)[C@H](C(C)C)NC(=O)[C@H](CC(C)C)N(C)C(=O)[C@@H](C)NC(=O)[C@@H]2CCCN2C(=O)[C@H]2CCCN2C1=O [Design D10.32, PRO *DALA DPHE *LEU DLEU DPRO PRO DALA *LEU VAL] (cyclo([dA][NMeL]VP[dNMeA][dF][NMeL][dL][dP]P)) | 2.87E-06 | 2.80E-06 | 3.18
11 | CC[C@H](C)[C@@H]1NC(=O)[C@@H]2CCCN2C(=O)[C@H]2CCCN2C(=O)[C@@H](Cc2ccccc2)NC(=O)[C@@H](CC(C)C)N(C)C(=O)[C@H](C(C)C)NC(=O)[C@@H](CC(C)C)NC(=O)[C@@H]2CCCN2C(=O)[C@H]2CCCN2C(=O)[C@@H](C)N(C)C(=O)[C@H](C(C)C)N(C)C1=O [Design D11.21, PRO ILE *VAL *DALA DPRO PRO DLEU VAL *DLEU DPHE DPRO] (cyclo(I[NMeV][dNMeA][dP]P[dL]V[dNMeL][dF][dP]P)) | 2.47E-07 | 2.17E-07 | 0.24
12 | CC(C)C[C@@H]1C(=O)N[C@H](C)C(=O)N2CCC[C@H]2C(=O)N(C)[C@H](CC(C)C)C(=O)N[C@@H](C)C(=O)N(C)[C@@H](CC(C)C)C(=O)N(C)[C@H](C(C)C)C(=O)N[C@H](Cc2ccccc2)C(=O)N2CCC[C@@H]2C(=O)N2CCC[C@H]2C(=O)N1C [Design D10.18, DPRO PRO *DLEU DALA PRO *DLEU ALA *LEU *DVAL DPHE] (cyclo([dNMeL][dA]P[dNMeL]A[NMeL][dNMeV][dF][dP]P)) | 9.23E-08 | 1.49E-07 | 0.0948
13 | CC[C@H](C)[C@@H]1NC(=O)[C@H](Cc2ccccc2)N(C)C(=O)[C@H]2CCCN2C(=O)[C@H]([C@@H](C)CC)NC(=O)[C@H](C(C)C)NC(=O)[C@@H](C)NC(=O)[C@H]2CCCN2C1=O [Design D7.9, VAL ILE DPRO *PHE ILE DPRO DALA] (cyclo(I[dP][NMeF]I[dP][dA]V)) | 6.71e-06 cm/s | 6.53e-06 cm/s | 7.09
14 | CC(C)C[C@@H]1NC(=O)[C@@H](CC(C)C)N(C)C(=O)[C@@H](CC(C)C)N(C)C(=O)[C@@H](CC(C)C)N(C)C(=O)[C@H](CC(C)C)NC(=O)[C@@H]2CCCN2C(=O)[C@H]2CCCN2C(=O)[C@H](Cc2ccccc2)NC1=O [Design D8.7, PHE DPRO PRO LEU *DLEU *DLEU *DLEU LEU] (cyclo(L[dNMeL][dNMeL][dNMeL]LF[dP]P)) | 1.94E-06 | 8.74E-07 | 1.27
